For series [1], the target named is T1, DHFR^Ser108 (reconstructed P. falciparum DHFR) (Plasmodium falciparum, UniProt P13922, N108S/R59C).
T1 construct: The gene encoding DHFR part of the P. falciparum DHFR-TS complex; made in house; host or cells: E. coli JM103, plasmid pET-PfDHFR^Ser108 (pET-3a), induced with M13-pKM2
Briefly: Inhibition of recombinant DHFR activity, spectrophotometric assay with Dixon plot analysis. It is filed as biochemical. From the text:
(§1) The decrease in A340 was monitored by a HITACHI spectrophotometer U-2000. The blank sample consisted of all the reaction components except the enzyme.

The subject of series [2] is DHFR^Thr108 (reconstructed P. falciparum DHFR). The note with it: Dixon plots for DHFR^Thr108 and DHFR^Ser108 (FIGS. 19A-19F).
From the text: as §1

The subject of series [3] is NC(=O)C1=CN([C@@H]2O[C@H](COP(=O)(O)OP(=O)(O)OC[C@H]3O[C@@H](n4cnc5c(N)ncnc54)[C@H](OP(=O)(O)O)[C@@H]3O)[C@@H](O)[C@H]2O)C=CC1. Briefly: purified protein, by the assay type. The note with it: other: substrate Km, reconstructed P.f. DHFR Thr108 (Table IV); pH 7.6; 37.0 °C.
The target in series [4] is SE47' recombinant SERA protein produced in E. coli (Plasmodium falciparum). In words: ELISA of control mouse serum.
The target in series [5] is SE50A recombinant SERA protein produced in E. coli (Plasmodium falciparum). In words: ELISA of control rat serum.
Series [6] relates to SE50A. Briefly: ELISA value of rat sera immunized with recombinant SERA protein SE50A. The note with it: individual rats 1-3; subcutaneous, insoluble form without adjuvant, days 1, 22, 50. In kind it is in vivo. The source says:
The SE50A protein was produced in E. coli cells as described for SE47'. The products were obtained as an inclusion body in the precipitate of lysed cells. The precipitate was solubilized with a buffer containing 5M guanidine HCl. After removal of insoluble materials, SE50A protein was precipitated by removing the 5M guanidine HCl again. These processes were repeated 3 times. The final precipitate contained SE50A at more than 80% purity. Three rats were immunized by subcutaneous injection of the insoluble form of SE50A without adjuvant three times on days 1, 22, and 50.

The subject of series [7] is Plasmodium falciparum (FCR3). In words: Plasmodium falciparum growth inhibition with anti-SERA serum. In kind it is cell-based. The note with it: FCR3 culture, serum dilutions, parasitemia after 72 hours (FIGS. 16A-16B). On the procedure: FIGS. 16A and 16B show Plasmodium falciparum growth inhibition with anti-SER47' and anti-SE50A serum. […] The inhibition confirms that the new constructs of SERA (FIG. 10, FIG. 11, and FIG. 12) produce immunogenic material and that adjuvant enhances the induction of parasite inhibitory levels of antibodies.
The Plasmodium falciparum cell (FCR3) was grown in an in vitro culture containing 5% red blood cells (RBC). When the parasitized RBC, 96% were trophozoite and schizont, reached 4.4% of total RBC, the culture was diluted to 1% of parasitized cell in total RBC and 2% of RBC in medium. The 100 µl of the diluted culture was incubated in a 96 well dish. The culture media which contains rat or mouse serum at the indicated dilution were changed each 24 hours. Parasitemia was measured by Giemsa staining after 72 hours incubation. The sera used here were from the animal #3 of SE47' and #1 of SE50A, each of whose ELISA titer was described in Table VI.

For series [8], the system named is SERA protein. Briefly: Immunoblot of whole cellular proteins of Plasmodium falciparum FCR3 strain with antiserum against SE47' or SE50A. In kind it is binding. The note with it: mouse anti-SE47' serum, rat anti-SE50A serum. Here is the method:
The antisera used for the immunoblot were as follows: lane 1, control mouse serum; lane 2, mouse anti-SF47' serum; lane 3, control rat serum; lane 4, rat anti-SE50A serum. The arrow indicates the molecular weight corresponding to SERA protein.
Parasite cells were isolated by saponin lysis of the in vitro culture. The prepared cells were analyzed by immunoblotting using SDS-polyacrylamide gel electrophoresis (12.5%). The antisera used for the immunoblot (FIG. 15) were as follows: lane 1, control mouse serum; lane 2, mouse #3 anti-SE47' serum; lane 3, control rat serum; lane 4, rat #1 anti-SE50A serum. The arrow indicates the molecular weight corresponding to SERA protein.

The mark [9] stands for this setting: substrate Km of DHFR^Ser108, as stated in text.
Setting [10] is: substrate Km, reconstructed P.f. DHFR Ser108 (Table IV).

Where “and” joins values, the source holds several entries; their conditions need not be identical. Equal entries are not always repeated.

As for `Nc1nc2c(c(=O)[nH]1)N=C(CNc1ccc(C(=O)N[C@@H](CCC(=O)O)C(=O)O)cc1)CN2` [DHF], the Km in series [1] (setting [9]) was determined as 67 µM; in series [1] (setting [10]), 66.6 ± 2.6 µM. The matching figures for `NC(=O)C1=CN([C@@H]2O[C@H](COP(=O)(O)OP(=O)(O)OC[C@H]3O[C@@H](n4cnc5c(N)ncnc54)[C@H](OP(=O)(O)O)[C@@H]3O)[C@@H](O)[C@H]2O)C=CC1` [NADPH]: 90 µM and 90.2 ± 4.3 µM.

Regarding `CN(Cc1cnc2nc(N)nc(N)c2n1)c1ccc(C(=O)N[C@@H](CCC(=O)O)C(=O)O)cc1` [methotrexate], the “manner of enzyme inhibition” value in series [2] is “competitive”.

On to `CCc1nc(N)nc(N)c1-c1ccc(Cl)cc1` [pyrimethamine], for which, in series [2], the “manner of enzyme inhibition” value was “competitive”. Turning to “DHFR^Thr108 (reconstructed P. falciparum DHFR) (Plasmodium falciparum K1; N108T/R59C)”, the Km in series [3] was 19.2 ± 0.4 µM. “control mouse serum (polyclonal serum or antibody)”: in series [4], the ELISA Titer is less than 200.

Turning to “control rat serum (polyclonal serum or antibody)”, the ELISA Titer in series [5] is less than 50.

B1: SE50A: recombinant portion of the 50 kd processed SERA protein, SEQ ID NO: 17, produced in E. coli as inclusion body (protein)
chain: MKDENNCISNLQVEDQGNCDTSWIFASKYHLETIRCMKGYEPTKISALYVANCYKGEHKDRCDEGSSPMEFLQIIEDYGFLPAESNYPYNYVKVGEQCPKVEDHWMNLWDNGKILHNKNEPNSLDGKGYTAYESERFHDNMDAFVKIIKTEVMNKGSVIAYIKAENVMGYEFSGKKVQNLCGDDTADHAVNIVGYGNYVNSEGEKKSYWIVRNSWGPYWGDEGYFKVDMYGPTHCHIEF
Consider B1, for which, in series [6], the “ELISA Titer” value is 10,000 and 8,330. In addition, in series [7], the “parasite growth inhibition by antiserum raised against the protein” value was “indistinguishable from control serum except at the lowest dilution”. Moreover, the “recognition of SERA protein by antiserum in immunoblot” value in series [8] is on record as “recognize the complete SERA protein”.

The values are drawn from patent US6333406A, “Gene encoding protein antigens of Plasmodium falciparum and uses therefor” (priority 1994, dated 2001).
